Legend:
[1] = Therapeutic index, ratio of CC50 for human MT4 cells to EC50 for HIV1 3B; assay type: cell-based; settings: read-out: Ratio CC50/EC50
[2] = test system: Human immunodeficiency virus 1; experiment: Antiviral activity against HIV1 3B infected in human MT4 cells assessed as reduction of virus-induced cytopathogenicity by MTT assay; assay type: functional, organism-based; settings: Human immunodeficiency virus 1, 3B
[3] = molecular target: T1, Human immunodeficiency virus type 1 integrase (Human immunodeficiency virus 1, UniProt Q7ZJM1); experiment: Inhibition of HIV1 integrase strand transfer activity using labelled oligonucleotide substrate by ELISA
T1 sequence (Q7ZJM1 whole entry): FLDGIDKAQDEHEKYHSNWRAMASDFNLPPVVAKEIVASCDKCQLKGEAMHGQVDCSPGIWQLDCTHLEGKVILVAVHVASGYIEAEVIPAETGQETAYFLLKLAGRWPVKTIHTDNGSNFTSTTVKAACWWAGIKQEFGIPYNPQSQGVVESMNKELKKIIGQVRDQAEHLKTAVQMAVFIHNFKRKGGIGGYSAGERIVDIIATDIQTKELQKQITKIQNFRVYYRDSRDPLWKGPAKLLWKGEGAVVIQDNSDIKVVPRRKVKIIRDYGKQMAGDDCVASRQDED

[4] = molecular target: T1, Human immunodeficiency virus type 1 integrase; experiment: Inhibition of HIV1 integrase 3'-processing activity using labelled oligonucleotide substrate by ELISA
[5] = Cytotoxicity against human MT4 cells by MTT method; assay type: cell-based
[6] = molecular target: T1, Human immunodeficiency virus type 1 integrase; experiment: Inhibition of HIV1 integrase using labelled oligonucleotide substrate by ELISA

## O=C1NC(=S)N/C1=C\c1ccc(-c2ccc(O)c(C(=O)O)c2)o1
[1]
  selectivity ratio: 2
[2]
  EC50: 95.2 µM
[3]
  IC50: > 250 µM
[4]
  IC50: > 250 µM
[5]
  CC50: 152 µM
[6]
  IC50: 50.9 µM

## Cc1c(-c2ccc(C=C3C(=O)NC(=S)NC3=O)o2)cccc1[N+](=O)[O-]
[2]
  EC50: > 17.9 µM
[4]
  IC50: 40.8 µM
[5]
  CC50: 17.9 µM
[6]
  IC50: 58.4 µM

## O=C1NC(=S)NC(=O)C1=Cc1ccc(-c2ccc(F)cc2C(=O)O)o1
[2]
  EC50: > 165 µM
[4]
  IC50: 47.1 µM
[5]
  CC50: 165 µM
[6]
  IC50: 184 µM

## O=C1NC(=S)NC(=O)C1=Cc1ccc(-c2ccc(C(=O)O)c(O)c2)o1
[1]
  selectivity ratio: 2
[2]
  EC50: 30 µM
[3]
  IC50: 69.2 µM
[4]
  IC50: 2.74 µM
[5]
  CC50: 60 µM
[6]
  IC50: 8.94 µM

## O=C1NC(=S)S/C1=C\c1ccc(-c2cc(C(=O)O)cc(O)c2O)o1
[1]
  selectivity ratio: 7
[2]
  EC50: 18 µM
[3]
  IC50: 164 µM
[4]
  IC50: 22.3 µM
[5]
  CC50: 131 µM
[6]
  IC50: 15.5 µM

## Cc1nnc(C(=O)NC(C)(C)c2nc(C(=O)NCc3ccc(F)cc3)c(O)c(=O)n2C)o1
[2]
  EC50: 0.0064 µM
[5]
  CC50: 143 µM

## O=C1NC(=S)NC(=O)C1=Cc1ccc(-c2cccc(C(=O)O)c2O)o1
[2]
  EC50: > 140 µM
[4]
  IC50: > 250 µM
[5]
  CC50: 140 µM
[6]
  IC50: > 250 µM

## COc1cc(C(=O)O)cc(OC)c1-c1ccc(C=C2C(=O)NC(=S)NC2=O)o1
[2]
  EC50: > 61.1 µM
[4]
  IC50: > 250 µM
[5]
  CC50: 61.1 µM
[6]
  IC50: 167 µM

## COc1cc(-c2ccc(C(=O)O)c(O)c2)oc1/C=C1\SC(=S)NC1=O
[2]
  EC50: 112 µM
[4]
  IC50: > 250 µM
[5]
  CC50: > 125 µM
[6]
  IC50: > 250 µM

## O=C1NC(=S)N/C1=C\c1ccc(-c2ccc(C(=O)O)c(O)c2)o1
[2]
  EC50: > 193 µM
[4]
  IC50: 74 µM
[5]
  CC50: 193 µM
[6]
  IC50: 107 µM

## O=C1NC(=S)NC(=O)C1=Cc1ccc(-c2cc(C(=O)O)cc3c2OCO3)o1
[2]
  EC50: > 125 µM
[4]
  IC50: 71.6 µM
[5]
  CC50: > 125 µM
[6]
  IC50: 56.5 µM

## O=C1NC(=S)S/C1=C\c1ccc(-c2ccc(C(=O)O)c(O)c2)o1
[1]
  selectivity ratio: 2
[2]
  EC50: 30.1 µM
[3]
  IC50: 97.7 µM
[4]
  IC50: > 250 µM
[5]
  CC50: > 72 µM
[6]
  IC50: 182 µM

## O=C1NC(=S)NC(=O)C1=Cc1ccc(-c2ccc(Cl)c(C(=O)O)c2)o1
[2]
  EC50: > 152 µM
[4]
  IC50: 12.9 µM
[5]
  CC50: 152 µM
[6]
  IC50: 41.7 µM

## Cc1cc(-c2ccc(C(=O)O)c(O)c2)oc1C=C1C(=O)NC(=S)NC1=O
[2]
  EC50: > 125 µM
[4]
  IC50: 125 µM
[5]
  CC50: > 125 µM
[6]
  IC50: 90.9 µM

## O=C1NC(=S)NC(=O)C1=Cc1ccc(-c2cc(C(=O)O)cc(O)c2O)o1
[1]
  selectivity ratio: 3
[2]
  EC50: 54.7 µM
[3]
  IC50: > 250 µM
[4]
  IC50: 5.79 µM
[5]
  CC50: 138 µM
[6]
  IC50: 5.06 µM

## Cc1cc(-c2ccc(C(=O)O)c(O)c2)oc1/C=C1\SC(=S)NC1=O
[4]
  IC50: 135 µM
[6]
  IC50: 158 µM

## COc1cc(-c2ccc(/C=C3\SC(=S)NC3=O)o2)c(Cl)cc1C(=O)O
[2]
  EC50: > 143 µM
[4]
  IC50: > 250 µM
[5]
  CC50: 143 µM
[6]
  IC50: > 250 µM

## COc1cc(-c2ccc(C=C3C(=O)NC(=S)NC3=O)o2)c(Cl)cc1C(=O)O
[2]
  EC50: > 100 µM
[4]
  IC50: 35.3 µM
[5]
  CC50: 100 µM
[6]
  IC50: 43.2 µM

## O=C1NC(=S)S/C1=C\c1ccc(-c2ccc(Cl)c(C(=O)O)c2)o1
[2]
  EC50: > 155 µM
[4]
  IC50: > 250 µM
[5]
  CC50: 155 µM
[6]
  IC50: > 250 µM

## Cc1cc(-c2ccc(C(=O)O)c(O)c2)oc1/C=C1\NC(=S)NC1=O
[4]
  IC50: > 250 µM
[6]
  IC50: > 250 µM

## O=C1NC(=S)NC(=O)C1=Cc1ccc(-c2ccc(O)c(C(=O)O)c2)o1
[2]
  EC50: > 222 µM
[4]
  IC50: 53 µM
[5]
  CC50: 222 µM
[6]
  IC50: 33.4 µM

## Cc1ccc(C(=O)O)cc1-c1ccc(C=C2C(=O)NC(=S)NC2=O)o1
[2]
  EC50: > 159 µM
[4]
  IC50: 25.4 µM
[5]
  CC50: 159 µM
[6]
  IC50: 46.4 µM

Source: ChEMBL document CHEMBL1136947, “Exploration of novel thiobarbituric acid-, rhodanine- and thiohydantoin-based HIV-1 integrase inhibitors” (Bioorg Med Chem Lett, 2009)
